# Source: US10517849B2, “LSD1 inhibitors and medical uses thereof” (Constellation Pharmaceuticals, Inc., priority 2016, dated 2019)
# pEC50, pIC50: −log10 of the molar value. Structures can show the parent of a compound that is named as a salt.
# Columns and labels:
# Kasumi-1 = Kasumi-1 GI50 Assay; type: cell-based; details: Homo sapiens, 288 h; Kasumi-1 cells, 12 days, Cell Titer-Glo viability
# Description: Cells were plated at 5,000 cells per well in 96 well tissue culture dishes containing tool compounds arrayed in a 10-point dose curve, ranging from […] with 4-fold dilutions, and split every fourth day at a fixed ratio to re-establish 5,000 cells/well density for DMSO-treated controls. Cell treatments were carried out for a total of 12 days. At each 4-day split, the viable cell numbers were determined using the Cell Titer-Glo luminescent cell viability assay (Promega, Madison, Wis. USA) using an EnVision® Multilabel Plate Reader (Perkin Elmer, Waltham, Mass. USA). GraphPad Prism 6 (GraphPad Software, Inc., La Jolla, Calif. USA) was used for curve fitting and determination of GI50 values.
# [1] = test system: LY-96 mRNA induction in MV4-11 cells; experiment: LSD1 LY96 Quantigene Assay; type: cell-based; details: Homo sapiens, 16 h, Quantigene 2.0
# Description: MV4-11 cells were cultured at a density of 4×10^4 cells per well in a 96-well plates and treated with various doses inhibitor starting from 10 μM up to 0.0005 μM for 16 h. The LY-96 mRNA induction was quantified using the Quantigene 2.0 system (Affymetrix). The cells were lysed with Lysis Mixture containing Proteinase K. The working reagent for capturing the RNA was prepared according to the steps detailed in “Capturing Target RNA from Cultured Cell or Blood Lysates” in the Quantigene handbook. The subsequent hybridization with LY-96 probe, signal amplification and detection steps were performed as described in the manual. The chemiluminescence was read using Envision (PerkinElmer) and Abase (IDBS software) was used to plot the dose response curves and calculate IC50.
# LSD1 = LSD1 (Homo sapiens (Human), UniProt O60341); experiment: LSD1 TR-FRET Assay; type: biochemical; details: biotinylated H3K4me1 peptide 4 μM, 10 nM LSD1, 40 nM FAD, 50 minutes at room temperature
# Description: LSD1 demethylase reactions were carried out in 50 mM HEPES pH 7.4, 100 mM NaCl, 1 mM DTT, 0.01% Tween-20, and 0.1 mg/mL BSA. All enzymatic reactions were performed for 50 minutes at room temperature in a 10-μL volume. Five microliters of 8 μM biotinylated H3K4me1 peptide solution was added to each well of a black 384 well, clear-bottom assay plate containing 80 nL compound (final concentration of 0.8% DMSO and 4 μM substrate). Reactions were initiated by the addition of a mixture containing 20 nM LSD1 and 80 nM FAD (5 μL). LSD1 and FAD final concentrations were 10 and 40 nM, respectively. Enzyme activity was stopped by the addition of 90 μL of high salt buffer consisting of 50 mM HEPES pH 7.4, 500 mM NaCl, 1 mM DTT, 0.01% Tween-20, and 0.1 mg/mL BSA. Ten microliters of the quenched reaction mixtures were transferred to a black 384 well ProxiPlate. Ten microliters of detection mixture was added to the ProxiPlate, Europium-labeled antibody and Streptavidin APC were used at final concentrations of 0.3 nM and 200 nM, respectively (total assay volume of 20 μL). Capture of the product peptide by the anti-H3K4me0 antibody and Streptavidin APC was allowed to proceed for 60 min at room temperature before measuring the TR-FRET signal. Plates were read on a Perkin Elmer EnVision. Percent inhibition was calculated using Max (no inhibitor) and Min (quenched with stop buffer) controls and inhibition curves plotted to determine IC50 values.
Compound,pEC50 [1],GI50 (Kasumi-1) [nM],pIC50 (LSD1)
"CC/C(=C\c1ccccc1)[C@@H]1C[C@H]1NC1CC2(C1)CN(CCO)C2 [Compound 1, 2-(6-(((1R,2S)-2-((E)-1-phenylbut-1-en-2-yl)cyclopropyl)amino)-2-azaspiro[3.3]heptan-2-yl)ethanol]",> 7.00,< 100,> 7.00
"CC/C(=C\c1ccccc1)[C@@H]1C[C@H]1NC1CC2(C1)CN(C(CO)CO)C2 [Compound 2, 2-(6-(((1R,2S)-2-((E)-1-phenylbut-1-en-2-yl)cyclopropyl)amino)-2-azaspiro[3.3]heptan-2-yl)propane-1,3-diol]",> 7.00,< 100,> 7.00
"CC/C(=C\c1ccccc1)[C@@H]1C[C@H]1NC1CC2(C1)CN(CCNS(C)(=O)=O)C2 [Compound 4, N-(2-(6-(((1R,2S)-2-((E)-1-phenylbut-1-en-2-yl)cyclopropyl)amino)-2-azaspiro[3.3]heptan-2-yl)ethyl)methanesulfonamide bis(2,2,2-trifluoroacetate)]",> 7.00,< 100,> 7.00
"CC/C(=C\c1ccccc1)[C@@H]1C[C@H]1NC1CC2(C1)CN(CCNC(C)=O)C2 [Compound 5, N-(2-(6-(((1R,2S)-2-((E)-1-phenylbut-1-en-2-yl)cyclopropyl)amino)-2-azaspiro[3.3]heptan-2-yl)ethyl)acetamide bis(2,2,2-trifluoroacetate)]",> 7.00,< 100,
"CC/C(=C\c1ccccc1)[C@@H]1C[C@H]1NC1CC2(C1)CN(CCNS(=O)(=O)C1CC1)C2 [Compound 6, N-(2-(6-(((1R,2S)-2-((E)-1-phenylbut-1-en-2-yl)cyclopropyl)amino)-2-azaspiro[3.3]heptan-2-yl)ethyl)cyclopropanesulfonamide bis(2,2,2-trifluoroacetate)]",> 7.00,< 100,
"CC/C(=C\c1ccccc1)[C@@H]1C[C@H]1NC1CC2(C1)CN(CCNS(=O)(=O)CC)C2 [Compound 7, N-(2-(6-(((1R,2S)-2-((E)-1-phenylbut-1-en-2-yl)cyclopropyl)amino)-2-azaspiro[3.3]heptan-2-yl)ethyl)ethanesulfonamide bis(2,2,2-trifluoroacetate)]",> 7.00,< 100,
"CC/C(=C\c1ccccc1)[C@@H]1C[C@H]1NC1CC2(C1)CN(CCNS(=O)(=O)C(C)C)C2 [Compound 8, N-(2-(6-(((1R,2S)-2-((E)-1-phenylbut-1-en-2-yl)cyclopropyl)amino)-2-azaspiro[3.3]heptan-2-yl)ethyl)propane-2-sulfonamide bis(2,2,2-trifluoroacetate)]",> 7.00,< 100,
"CC/C(=C\c1ccccc1)[C@@H]1C[C@H]1NC1CC2(C1)CN(CCNS(=O)(=O)CCOC)C2 [Compound 9, 2-methoxy-N-(2-(6-(((1R,2S)-2-((E)-1-phenylbut-1-en-2-yl)cyclopropyl)amino)-2-azaspiro[3.3]heptan-2-yl)ethyl)ethanesulfonamide bis(2,2,2-trifluoroacetate)]",> 7.00,< 100,
"CC/C(=C\c1ccccc1)[C@@H]1C[C@H]1NC1CC2(CCN(C(CO)CO)CC2)C1 [Compound 10, 2-(2-(((1R,2S)-2-((E)-1-phenylbut-1-en-2-yl)cyclopropyl)amino)-7-azaspiro[3.5]nonan-7-yl)propane-1,3-diol bis(2,2,2-trifluoroacetate)]",> 7.00,< 100,
"CC/C(=C\c1ccccc1)[C@@H]1C[C@H]1NC1CC2(C1)CN(C(C)(C)C(N)=O)C2 [Compound 14, 2-methyl-2-(6-(((1R,2S)-2-((E)-1-phenylbut-1-en-2-yl)cyclopropyl)amino)-2-azaspiro[3.3]heptan-2-yl)propanamide bis(2,2,2-trifluoroacetate)]",> 7.00,< 100,
"CC/C(=C\c1ccccc1)[C@@H]1C[C@H]1NC1CC2(C1)CN(CC(C)(C)NS(C)(=O)=O)C2 [Compound 15, N-(2-methyl-1-(6-(((1R,2S)-2-((E)-1-phenylbut-1-en-2-yl)cyclopropyl)amino)-2-azaspiro[3.3]heptan-2-yl)propan-2-yl)methanesulfonamide bis(2,2,2-trifluoroacetate)]",> 7.00,< 100,
"CC/C(=C\c1ccccc1)[C@@H]1C[C@H]1NC1CC2(CCN(C[C@@H](C)O)CC2)C1 [Compound 16, (R)-1-(2-(((1R,2S)-2-((E)-1-phenylbut-1-en-2-yl)cyclopropyl)amino)-7-azaspiro[3.5]nonan-7-yl)propan-2-ol dihydrochloride]",> 7.00,< 100,

# Second part, led by results:
pEC50 [1],Compound,GI50 (Kasumi-1) [nM],pIC50 (LSD1)
> 7.00,"CC/C(=C\c1ccccc1)[C@@H]1C[C@H]1NC1CC2(CCN(CC(C)(C)O)CC2)C1 [Compound 18, 2-methyl-1-(2-(((1R,2S)-2-((E)-1-phenylbut-1-en-2-yl)cyclopropyl)amino)-7-azaspiro[3.5]nonan-7-yl)propan-2-ol dihydrochloride]",< 100,
> 7.00,"CC/C(=C\c1ccccc1)[C@@H]1C[C@H]1NC1CC2(CCN(C[C@@H](O)CO)CC2)C1 [Compound 19, (R)-3-(2-(((1R,2S)-2-((E)-1-phenylbut-1-en-2-yl)cyclopropyl)amino)-7-azaspiro[3.5]nonan-7-yl)propane-1,2-diol dihydrochloride]",< 100,
> 7.00,"CC/C(=C\c1ccccc1)[C@@H]1C[C@H]1NC1CC2(CCN(C[C@H](O)CO)CC2)C1 [Compound 20, (S)-3-(2-(((1R,2S)-2-((E)-1-phenylbut-1-en-2-yl)cyclopropyl)amino)-7-azaspiro[3.5]nonan-7-yl)propane-1,2-diol dihydrochloride]",< 100,
> 7.00,"CC/C(=C\c1ccccc1)[C@@H]1C[C@H]1NC1CC2(CCN(CCC(N)=O)CC2)C1 [Compound 24, 3-(2-(((1R,2S)-2-((E)-1-phenylbut-1-en-2-yl)cyclopropyl)amino)-7-azaspiro[3.5]nonan-7-yl)propanamide dihydrochloride]",< 100,
> 7.00,"CC/C(=C\c1ccccc1)[C@@H]1C[C@H]1NC1CC2(C1)CN(CC(=O)NCCS(C)(=O)=O)C2 [Compound 26, N-(2-(methylsulfonyl)ethyl)-2-(6-(((1R,2S)-2-((E)-1-phenylbut-1-en-2-yl)cyclopropyl)amino)-2-azaspiro[3.3]heptan-2-yl)acetamide bis(2,2,2-trifluoroacetate)]",< 100,
> 7.00,"CC/C(=C\c1ccccc1)[C@@H]1C[C@H]1NC1CC2(C1)CN(CC(=O)NC(C)C)C2 [Compound 27, N-isopropyl-2-(6-(((1R,2S)-2-((E)-1-phenylbut-1-en-2-yl)cyclopropyl)amino)-2-azaspiro[3.3]heptan-2-yl)acetamide bis(2,2,2-trifluoroacetate)]",< 100,
> 7.00,"CC/C(=C\c1ccccc1)[C@@H]1C[C@H]1NC1CC2(C1)CN(CC(=O)N(C)C)C2 [Compound 28, N,N-dimethyl-2-(6-(((1R,2S )-2-((E)-1-phenylbut-1-en-2-yl)cyclopropyl)amino)-2-azaspiro[3.3]heptan-2-yl)acetamide bis(2,2,2-trifluoroacetate)]",< 100,
> 7.00,"CC/C(=C\c1ccccc1)[C@@H]1C[C@H]1NC1CC2(C1)CN(CC(=O)NS(C)(=O)=O)C2 [Compound 29, N-(methylsulfonyl)-2-(6-(((1R,2S)-2-((E)-1-phenylbut-1-en-2-yl)cyclopropyl)amino)-2-azaspiro[3.3]heptan-2-yl)acetamide bis(2,2,2-trifluoroacetate)]",< 100,
> 7.00,"CC/C(=C\c1ccccc1)[C@@H]1C[C@H]1NC1CC2(C1)CN(C(C)C(N)=O)C2 (stereo partly drawn) [Compound 30, 2-(6-(((1R,2S)-2-((E)-1-phenylbut-1-en-2-yl)cyclopropyl)amino)-2-azaspiro[3.3]heptan-2-yl)propanamide bis(2,2,2-trifluoroacetate)]",< 100,
